Laboratory results reported in PubChem BioAssay (NCI).
Where “and” joins values, the source holds several entries; their conditions need not be identical. Identical values can stand only once.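 Tested at 5 concentrations; 48 h exposure; 96-well plates; endpoints linearly interpolated, else capped at highest concentration. GI50: concentration for 50% inhibition of growth. The concentration for full growth arrest is given as TGI.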

What follows are compounds tested on MDA-MB-468 breast (assay: NCI anticancer screen, dose series, 48 h).

Q: Which results are given for CC[C@H](C)[C@H](NC(=O)C12CC(NC)(C1)C2)C(=O)N(C)[C@H](C[C@@H](OC(C)=O)c1nc(C(=O)N[C@@H](Cc2ccccc2)C[C@H](C)C(=O)OC)cs1)C(C)C?
A: GI50: 59.1 nM; TGI: 2260 nM

Q: What does the source list for COc1ccc2cnc(N)c(C#Cc3cc(C(=O)Nc4ccc(CN5CCN(C)CC5)c(C(F)(F)F)c4)cnc3C)c2c1?
A: GI50: 8830 nM; TGI: 27600 nM

Q: How did the GI50 turn out when Cn1ccnc1C(=O)/C=C/c1ccc(C(=O)Nc2ccc(F)cc2)cc1 was run?
A: 813 nM

Q: What about the TGI of the same compound?
A: 3060 nM

Q: How did the GI50 turn out when O=C1/C(=C/c2ccc(Cl)cc2Cl)CN(S(=O)(=O)c2ccccc2)C/C1=C\c1ccc(Cl)cc1Cl was run?
A: 687 nM

Q: And the TGI?
A: 2730 nM

Q: Which GI50 does the source give for CC(=O)O[C@H]1C[C@H](O[C@H]2[C@@H](O)C[C@H](O[C@H]3[C@@H](O)C[C@H](O[C@H]4CC[C@@]5(C)C(CCC6C5C[C@@H](O)[C@]5(C)[C@@H](C7=CC(=O)OC7)CC[C@]65O)C4)O[C@@H]3C)O[C@@H]2C)O[C@H](C)[C@H]1O[C@@H]1O[C@H](CO)[C@@H](O)[C@H](O)[C@H]1O (stereo partly drawn) here?
A: 85.6 nM and 220 nM

Q: And the TGI?
A: 223 nM and 577 nM

Q: Which GI50 does the source give for N#Cc1c(NC(=O)c2cccc(C(F)(F)F)c2F)sc2c1CCC(=O)C2 here?
A: 292 nM

Q: What about the TGI of the same compound?
A: 1030 nM

Q: Which results are given for N#C/C(=C\c1ccc2c(c1)OCO2)n1nnc2ccccc21?
A: GI50: 555 nM; TGI: 7980 nM

Q: Cc1ccc2c(c1)C(=O)C(c1c(-c3[nH]c(=O)c4ccc(C)cc4c3O)c(O)c3ccccc3c1O)=NC2=O was tested. Which GI50 did it give?
A: 313 nM

Q: And the TGI?
A: 987 nM

Q: With COc1ccc(OC)c(N(CCN2C(=O)c3ccccc3C2=O)C(=O)CCl)c1 as the compound, how does the GI50 read?
A: 4430 nM

Q: What about the TGI of the same compound?
A: 22000 nM

Q: What does the source list for COc1ccc(-c2nc(S(=O)(=O)c3ccccc3)c(S(=O)CC(=O)N3CCC(C)CC3)o2)cc1 (stereo not drawn)?
A: GI50: 1630 nM; TGI: 4650 nM

Q: Which GI50 does the source give for COc1cc(Cl)cc(-c2nn(-c3cccc(NC(=O)c4cccc(C(F)(F)F)c4)c3)cc2-c2ccncc2)c1 here?
A: 4260 nM

Q: What about the TGI of the same compound?
A: > 100000 nM

Q: With COc1ccc2c(c1)c(-c1nonc1-c1cn(C)c3ccccc13)cn2C as the compound, how does the GI50 read?
A: 330 nM

Q: How did the GI50 turn out when c1ccc(-c2n(Cc3ccc4ccccc4n3)cc[n+]2Cc2ccc3ccccc3n2)cc1 was run?
A: 221 nM

Q: And the TGI?
A: 1430 nM

Q: Which GI50 does the source give for O=S(=O)(Nc1cccc(Cl)c1)c1ccc(-c2cnc(C3CC3)o2)cc1 here?
A: 411 nM

Q: What about the TGI of the same compound?
A: 12200 nM

Q: What does the source list for C=C1C(=O)O[C@H]2[C@H]1CC/C(COC(=O)NCc1ccc(Cn3c(=O)sn(CCCC)c3=O)cc1)=C\CC[C@@]1(C)O[C@@H]21?
A: GI50: 1730 nM; TGI: 3630 nM

Q: With C[C@H](Nc1ccc2c(c1)OCCn1cc(N3C(=O)OC[C@H]3C(F)F)nc1-2)C(N)=O as the compound, how does the GI50 read?
A: 343 nM

Q: What about the TGI of the same compound?
A: 6270 nM

Q: Which results are given for O=C(c1ccccc1)N(C(=S)NCCc1ccc(Cl)cc1)c1ccc(Cl)cc1?
A: GI50: 5410 nM; TGI: 33400 nM

Q: Which results are given for Cc1ccc(C2CC(c3cccc(Nc4ccncc4)c3)=NN2c2cc(Cl)cc(Cl)c2)cc1 (stereo not drawn)?
A: GI50: 1410 nM; TGI: 2840 nM

Q: How did the GI50 turn out when CCOC(=O)c1c(NC(=O)c2cccc(C(F)(F)F)c2)sc2c(CN3CCN(C)CC3)c(O)ccc12 was run?
A: 1650 nM

Q: And the TGI?
A: 3250 nM

Q: For C=C1CC[C@@H]2C(C)(C)[C@H](O)CC[C@@]2(C)[C@@H]1COc1ccc2ccc(=O)oc2c1, which GI50 is on record?
A: 20500 nM

Q: What about the TGI of the same compound?
A: 78200 nM

Q: How did the GI50 turn out when O=C1Nc2ccccc2/C1=C/C(=N/c1nnc(-c2ccc(Cl)cc2)s1)c1ccccc1 was run?
A: 2020 nM

Q: And the TGI?
A: 6270 nM

Q: Which results are given for COc1cc2c(Nc3ccc(Cl)c(Cl)c3F)ncnc2cc1OCC1C[C@@H]2CN(C)C[C@@H]2C1 (stereo partly drawn)?
A: GI50: 24.1 nM and 21.7 nM and 21.2 nM; TGI: 175 nM and 633 nM and 213 nM

Q: How did the GI50 turn out when COc1cccc(CNCCN2C(=O)c3ccc4c5c(ccc(c35)C2=O)C(=O)N(CCNCc2cccc(OC)c2)C4=O)c1 was run?
A: 1760 nM

Q: And the TGI?
A: 3560 nM

Q: With COc1ccc(C(=O)N2N=C(c3ccc(Br)cc3)CC2c2cn(-c3ccccc3)nc2-c2ccccc2)cc1 (stereo not drawn) as the compound, how does the GI50 read?
A: 6590 nM

Q: What about the TGI of the same compound?
A: > 50000 nM

Q: How did the GI50 turn out when Cc1cc(Cl)ccc1Nc1nc(C(F)(F)F)ccc1C(=O)N/N=C/c1cccc(O)c1 was run?
A: 1510 nM

Q: And the TGI?
A: 9690 nM

Q: Which results are given for CN(C)c1ccc2nc3ccc(=[N+](C)C)c([N+](=O)[O-])c-3sc2c1?
A: GI50: 1410 nM; TGI: 3350 nM

Q: With COc1cc(/C=C\c2cc(/C=C\c3ccc(O)c(OC)c3)n(C(=O)COc3ccc(Cl)cc3Cl)n2)ccc1O as the compound, how does the GI50 read?
A: 1990 nM

Q: What about the TGI of the same compound?
A: 5340 nM

Q: How did the GI50 turn out when CN1CCN(CCOc2ccc(-c3cnc4c(-c5cccc(F)c5F)cnn4c3)cc2)CC1 was run?
A: 1450 nM

Q: And the TGI?
A: 3060 nM

Q: CCn1cc(C2NC(=O)c3ccccc3N2)c2cccc(C)c21 (stereo not drawn) was tested. Which GI50 did it give?
A: 216 nM

Q: What about the TGI of the same compound?
A: 656 nM

Q: With CC(C)c1ccc(COCc2cc(CN3CCCC3)c(O)c3ncccc23)cc1 as the compound, how does the GI50 read?
A: 401 nM

Q: What about the TGI of the same compound?
A: 1880 nM

Q: What does the source list for CCOc1cc2ncc(C#N)c(Nc3ccc(F)c(Cl)c3)c2cc1NC(=O)CC1CCSS1 (stereo not drawn)?
A: GI50: 473 nM; TGI: 1170 nM

Q: What does the source list for CCOC(=O)C(=Cc1ccc(-c2ccccc2)cc1)C(=O)OCC?
A: GI50: 3240 nM; TGI: 10100 nM

Q: CCOC(=O)c1cnc2c(C)cc(C)cc2c1NCCCN(C)C was tested. Which GI50 did it give?
A: 2000 nM

Q: What about the TGI of the same compound?
A: 8450 nM

Q: With Cc1cc2nc(CS)[nH]c2cc1C as the compound, how does the GI50 read?
A: 13000 nM

Q: What about the TGI of the same compound?
A: 30400 nM

Q: For [Cl][Ru].c1ccc(-c2cc(-c3ccccn3)nc(-c3ccccn3)c2)cc1.c1ccc(-c2ccnc3c2ccc2c(-c4ccccc4)ccnc23)cc1, which GI50 is on record?
A: 208 nM

Q: What about the TGI of the same compound?
A: 635 nM

Q: For CN1CCN(CCCOc2ccc3ncnc(Nc4ccc(OCc5cccc(F)c5)c(Cl)c4)c3c2)CC1, which GI50 is on record?
A: 367 nM

Q: What about the TGI of the same compound?
A: 1840 nM

Q: Which GI50 does the source give for COC(=O)c1ccc2[nH]c(O)c(C(=Nc3ccc(N(C)C(=O)CN4CCN(C)CC4)cc3)c3cccc(OC)c3)c2c1 here?
A: 1440 nM

Q: And the TGI?
A: 3500 nM
